According to doi:10.1101/427617v2 (bioRxiv, 2019):

Assays:
[1] = test system: dural lymphatic cells; test: pHrodo-dextran uptake, live cell imaging; assay type: cell-based, rat; conditions: 10kD pHrodo-dextran, Dyngo4a at 100-200μM, Fig. 12B, 12D
[2] = test system: dural lymphatic cells; test: transferrin-AlexaFluor647 uptake, live cell imaging; assay type: cell-based, rat

Row | Compound | Effect of inhibitor on pHrodo dextran uptake [1] | Effect of inhibitor on transferrin-AlexaFluor647 uptake ([2]; same concentration (100-200μM), Fig. 12C) | Uptake of labeled transferrin by lymphatic cells [2]
1 | O=C(N/N=C/c1cc(O)c(O)cc1O)c1cc2ccccc2cc1O [Dyngo4a] | blocked in dose dependent fashion | specifically blocked | –
2 | CCCCC[C@@H](O)[C@H]1C(=O)O[C@H](C)[C@@H](O)/C=C/C=C/C=C/C=C/C=C(\C)[C@@H](O)C[C@H](O)C[C@H](O)C[C@H](O)C[C@H](O)C[C@H](O)C[C@@H]1O [filipin] | blocked uptake | – | –
3 | transferrin-AlexaFluor647: labeled transferrin used to test clathrin-dependent endocytosis | – | – | avidly took up
